The term Km denotes the substrate concentration at which the rate is half of its maximum.

Experiment [1] relates to AdmJ. In words: ATP-[…]PPi exchange assay. In kind it is biochemical, Pantoea agglomerans. To be noted: 5 mM ATP, 1 mM PPi, 10 mM MgCl2, 5 mM TCEP, 75 mM Tris pH 7.5, RT.
The target of experiment [2] is AdmH (Pantoea agglomerans, UniProt Q84FL5). In words: chiral radio-HPLC. To be noted: labelled compound ([14C]-L-Phe, 100 µM); 20 mM tricine pH 8.25, 30 °C. The format is biochemical.

Molecules are shown by their SMILES.

As for `N[C@@H](CC(=O)O)c1ccccc1` [(S)-β-Phe], the Km in experiment [1] was found to be 130 ± 34 µM. The “chiral radio-HPLC” value in experiment [2] is “The β-Phe generated by AdmH was found to be solely (S)-β-Phe”.

Source of the values: article PMC2728764 (ACS chemical biology, 2008).
